Numbered stars: 1 amine (or outer) side, 2 acyl side, 3 side chain; on linkers, the order of the positions; unused ones are H or OH. Square brackets hold non-standard residues; d marks the D form. Peptide text beside a SMILES is read from it. * marks the point of attachment. DOTA = O=C(O)CN1CCN(CC(=O)O)CCN(CC(=O)*)CCN(CC(=O)O)CC1; X1 = O=C(C1CSC(c2nc3ccc(N[*:1])cc3s2)=N1)[*:2]; X2 = N#Cc1ccc2cc(OCCCN*)ccc2n1; SEt = CCS*
Legend:
[1] = target: T1, legumain (Homo sapiens, UniProt Q99538); test: HPLC enzyme specificity assay of C-SNAF, legumain; type: biochemical; details: 25 μM probe, 0.735 μg/ml enzyme, pH 5.5
T1 construct: purchased R&D Systems; host or cells: mouse myeloma cell line
Method: The specificity of C-SNAF towards other representative cysteine proteases such as caspase-7, caspase-9, cathepsin B, and legumain was examined.
Caspase (human, recombinant from E. coli) assays were performed for caspase-3 (4.9×10^−3 U; 7.35×10^−4 mg, Sigma), −7 (18.3 U; 7.35×10^−4 mg, Calbiochem), and −9 (0.3 U; 7.35×10^−4 mg, Calbiochem). All caspase assays were conducted in caspase buffer with 50 mM HEPES, 100 mM NaCl, 1 mM EDTA, 10 mM TCEP, 10% glycerol, and 0.1% CHAPS at pH 7.4. Cathepsin B (human liver; 0.27 U; 7.35×10^−4 mg, Calbiochem) and Legumain (human, recombinant from mouse myeloma cell line; >250 pmol/min/μg; 7.35×10^−4 mg, R&D Systems) were conducted in reaction buffer with 50 mM sodium acetate, 50 mM NaCl, 0.5 mM EDTA and 10 mM TCEP at pH 5.5. C-SNAF was diluted in the respective enzyme reaction buffer (25 μM, 1 mL) and remained at room temperature for 10 min, to which was then added the respective enzymes. Reactions were performed at 37° C., and monitored by HPLC hourly. The percentage conversion of the reaction was calculated based on the percentage of peak area of C-SNAF-cycl in the HPLC trace at 675 nm UV detection, which indicated the efficacy of enzyme cleavage of C-SNAF.

[2] = test system: DOX-induced apoptotic HeLa cells; test: Flow cytometry of DOX-induced apoptotic HeLa cells labeled with probes; type: cell-based, human; details: 5 μM DOX, 2 μM probe, 24 h
Method: For the DOX-induced apoptotic cells, HeLa cells in 12-well plates were co-incubated with DOX (5 μM) and 2 μM C-SNAF, L-ctrl and D-ctrl, or 2 μM C-SNAF together with 50 μM Z-VAD-fmk for 24 h. After washing with PBS (1×) three times, the cells pellets were resuspended in 300 μL PBS, and applied for flow cytometry analysis using the Cy5.5 channels. The cell number for each flow cytometry analysis was approximately 5×10^3 to 10^4, and the data was processed using FlowJo software.

[3] = Water proton r1 relaxivity measurement; type: physicochemical; details: 1 T
Method: Water proton r1 relaxivities of probe 15 and 1-ctrl (19) before and after caspase-3 incubation were then measured at 1, 1.5 and 3 T. For comparison, the isolated cyclized products 2-I and 2-II were also measured.
A series of solutions containing contrast agents with five different concentrations (0.05-0.5 mM) in Caspase buffer (pH 7.4) were treated with or without Casp-3 (50 nM) at 37° C. overnight. The solutions were placed in PCR tubes, bundled together, and MR-imaged at 1 T (Bruker Icon, Bruker BioSpin Corp.), […], 1.5 and 3 T (Signa HDx, GE Healthcare) at room temperature.
The scanning procedure began with a localizer and then consisted of a series of inversion-prepared fast spin echo scans, identical in all aspects (TR 8000 ms (6000 ms for Bruker Icon), TE minimum, field of view 6 cm, slice thickness 2 mm, matrix 128×128, NEX 1) except for the inversion time (TI) that was varied as: 4000, 2400, 1200, 800, 600, 400, 300, 200, 100, and 50 ms. For quantitative data analysis, the acquired MR images were transferred as DICOM images to an offline workstation, and signal intensities were extracted from each of the 5 samples at each of the 10 TI times by manual region of interest (ROI) placement and voxel averaging within the ROI.
Signal intensity versus TI relationships were fit to the following exponential T1 recovery model by non-linear least squares regression: SI (TI)=S0[1−2*exp(−TI/T1)+exp(−TR/T1)]. Relaxation rates (R1) were determined as 1/T1. Longitudinal relaxivities (r1, units of mM^−1s^−1) were calculated as the slope of R1 vs [Gd] after the determination of true Gd concentration of each sample by the ICP-MS measurement.

[4] = target: T2, caspase-9 (Homo sapiens, UniProt P55211); test: T1 measurement of probe 15 with caspase-9; type: biochemical; details: probe 208 μM, protease 50 nM, 1 T
T2 construct: purchased Calbiochem; host or cells: E. coli
Method: (§1) The enzyme specificity of probe 15 was studied by measuring the T1 value resulting from probe incubation (208 μM) with any of five relevant subcellular proteases (caspase-3, -7, -9, cathepsin B and legumain) in enzyme buffer. […] The reduced T1 value in solution was inhibited by the caspase inhibitor Z-VAD-fmk (50 μM).
(§2) Caspase (human, recombinant from E. coli) assays were performed for caspase-3 (4.9×10^−3 U; 7.35×10^−4 mg, Sigma), −7 (18.3 U; 7.35×10^−4 mg, Calbiochem), and −9 (0.3 U; 7.35×10^−4 mg, Calbiochem). All caspase assays were conducted in caspase buffer with 50 mM HEPES, 100 mM NaCl, 1 mM EDTA, 10 mM TCEP, 10% glycerol, and 0.1% CHAPS at pH 7.4.

[5] = test system: HeLa cells; test: ICP-MS cellular uptake of Gd in HeLa cells; type: cell-based, human; details: 250 μM probe, 24 h
Method: The cellular uptake of Gd was studied by inductively-coupled plasma mass spectrometry (ICP-MS) analysis of the amount of Gd in viable and apoptotic cells after incubation with probe 15 (50-250 μM) for 24 h. […] This uptake enhancement was inhibitable by Z-VAD-fmk (50 μM), confirming the caspase-3-dependent accumulation of probe 15 in apoptotic cells.

[6] = target: T3, caspase-3 (Homo sapiens, UniProt P42574); test: HPLC assay of caspase-3-triggered cyclization of MRI probe 15; type: biochemical; parameters: purchased Sigma; host or cells: E. coli; details: 200 μM probe, caspase-3 50 nM, 5 h
T3 sequence (P42574 29-175 limits assumed): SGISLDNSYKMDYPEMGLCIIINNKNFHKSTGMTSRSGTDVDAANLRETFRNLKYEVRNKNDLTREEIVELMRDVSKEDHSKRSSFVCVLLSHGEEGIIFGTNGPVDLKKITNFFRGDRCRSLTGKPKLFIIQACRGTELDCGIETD
T3 sequence (P42574 176-277 limits assumed): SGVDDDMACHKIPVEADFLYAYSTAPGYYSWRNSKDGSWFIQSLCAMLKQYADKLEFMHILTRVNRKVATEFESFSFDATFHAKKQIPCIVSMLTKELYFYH
Method: The progression of caspase-3-triggered intramolecular cyclization of probe 15 in solution was investigated by incubation (200 μM) with recombinant human caspase-3 (50 nM) using high-performance liquid chromatography (HPLC). […] More than 90% of probe 15 and its disulfide bond reduced intermediates could be converted after 5 h (FIG. 27B).

[7] = target: T3, caspase-3; test: T1 measurement of probe 15 with caspase-3; type: biochemical; parameters: purchased Sigma; host or cells: E. coli; details: probe 200 μM
Method: as §1, §2

T1 sequence (Q99538 18-323): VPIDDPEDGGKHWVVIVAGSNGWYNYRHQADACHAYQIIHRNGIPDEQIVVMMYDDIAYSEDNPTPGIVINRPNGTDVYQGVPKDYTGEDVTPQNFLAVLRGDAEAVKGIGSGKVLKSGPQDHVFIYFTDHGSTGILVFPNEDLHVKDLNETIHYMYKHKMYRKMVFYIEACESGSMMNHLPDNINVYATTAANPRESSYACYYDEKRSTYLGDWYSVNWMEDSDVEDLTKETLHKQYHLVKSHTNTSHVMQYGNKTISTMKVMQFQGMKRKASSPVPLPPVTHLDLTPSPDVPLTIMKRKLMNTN
T2 sequence (P55211 1-315 limits assumed): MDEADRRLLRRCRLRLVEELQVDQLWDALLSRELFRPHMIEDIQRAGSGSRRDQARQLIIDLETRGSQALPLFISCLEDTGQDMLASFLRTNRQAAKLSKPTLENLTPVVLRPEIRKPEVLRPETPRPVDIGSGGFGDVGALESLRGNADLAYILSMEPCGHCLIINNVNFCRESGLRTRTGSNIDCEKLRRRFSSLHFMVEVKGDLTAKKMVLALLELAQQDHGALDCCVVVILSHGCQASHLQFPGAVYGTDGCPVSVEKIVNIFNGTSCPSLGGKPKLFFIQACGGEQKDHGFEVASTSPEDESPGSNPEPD

SMILES	activation by legumain [1]	increase in Cy5.5 intensity of DOX-induced apoptotic cells compared to no probe or control probes [2] [fold]	r1 after activation higher than Dotarem [3]	r1 after activation higher than before activation [3]	r1 relaxivity upon caspase-3 activation [3]	r1 relaxivity without caspase-3 activation [3] [mM⁻¹ s⁻¹]	r1 after activation higher than before activation ([3]; listed as Gd-based MRI probe) [%]	r1 relaxivity upon caspase-3 activation ([3]; listed as Gd-based MRI probe) [mM⁻¹ s⁻¹]	T1 value after incubation with caspase-9 [4]	cellular uptake of Gd in STS-treated versus non-treated cells [5] [fold]	probe and disulfide-reduced intermediates converted to cyclized products [6]	lowest caspase-3 concentration detected by T1 value measurements [7] [nM]
CCSSC[C@@H](NC(=O)[C@H](CC(=O)O)NC(=O)[C@@H](NC(=O)[C@H](CCC(=O)O)NC(=O)[C@H](CC(=O)O)NC(C)=O)C(C)C)C(=O)N[C@@H](CCCCNC(=O)CCCCCN1C(=CC=CC=CC2=[N+](CC)c3ccc4c(S(=O)(=O)[O-])cc(S(=O)(=O)O)cc4c3C2(C)C)C(C)(C)c2c1ccc1c(S(=O)(=O)O)cc(S(=O)(=O)O)cc21)C(=O)Nc1ccc2nc(C3=N[C@@H](C(=O)NCCCOc4ccc5nc(C#N)ccc5c4)CS3)sc2c1 [C-SNAF]	neither lysosomal cysteine proteases cathepsin B nor legumain could significantly activate	~4	–	–	–	–	–	–	–	–	–	–
CCSSCC(NC(=O)C(CC(=O)O)NC(=O)C(NC(=O)C(CCC(=O)O)NC(=O)C(CC(=O)O)NC(C)=O)C(C)C)C(=O)NC(CCCCNC(=O)CN1CCN(CC(=O)[O-])CCN(CC(=O)[O-])CCN(CC(=O)[O-])CC1)C(=O)Nc1ccc2nc(C3=NC(C(=O)NCCCOc4ccc5nc(C#N)ccc5c4)CS3)sc2c1.[Gd+3] (stereo not drawn) [probe 15] (Ac-DEVDC(SEt)K(DOTA)[X1]-X2; configuration not given here)	–	–	about 510%	about 106%	approximately 29.3 mM^−1 s^−1	14.2	106	29.3	No reduced T1 value	6.6	More than 90%	5

Reference: US9642922B2, “Caspase-triggered nano-aggregation probes and methods of use” (The Board of Trustees of the Leland Stanford Junior …, priority 2013, dated 2017)
